Earlier results, collected in patent publication US10485754B2, “Method for the production of a sodium ion-free effervescent tablet, powder or granulate having a high X ion content, where X can be a variety of substances” (BIOFAR LABORATOIRES, priority 2014, dated 2019).

O=C([O-])[O-].[Ca+2] [calcium carbonate]
calcium carbonate that can be dissolved in one liter of water (water): 0.014 grams in one liter of water | calcium carbonate that can be dissolved in one liter of water with CO2 (with CO2 soda in the water): up to 16.6 grams in one liter of water
